According to ChEMBL document CHEMBL1201862, “PubChem BioAssay data set” (2004):
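Step 1: Grow cells in 96-well plates. Step 2: Expose to compound for 48 hours at 5 concentrations. Step 3: Interpolate endpoints linearly; if unreached, use highest concentration. GI50: concentration for 50% inhibition of growth.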 The source made the active and inactive calls. Rule as the data show it: active = GI50 up to about 1.1 µM and inactive = higher.

Tests used:
Assay in all cases: growth of human tumour cells (NCI), 48 h
786-0 = tested on: 786-0
A498 = tested on: A498
A549 = tested on: A549
ACHN = tested on: ACHN
BT-549 = tested on: BT-549
CAKI-1 = tested on: CAKI-1
CCRF-CEM = tested on: CCRF-CEM
COLO 205 = tested on: COLO 205
DU-145 = tested on: DU-145
EKVX = tested on: EKVX
HCC 2998 = tested on: HCC 2998
HCT-116 = tested on: HCT-116
HCT-15 = tested on: HCT-15
HL-60 = tested on: HL-60
HOP-62 = tested on: HOP-62
HOP-92 = tested on: HOP-92
HT-29 = tested on: HT-29
Hs-578T = tested on: Hs-578T
IGROV-1 = tested on: IGROV-1
K562 = tested on: K562
KM12 = tested on: KM12
LOX IMVI = tested on: LOX IMVI
M14 = tested on: M14
MCF7 = tested on: MCF7
MDA-MB-231 = tested on: MDA-MB-231
MDA-MB-435 = tested on: MDA-MB-435
MDA-N = tested on: MDA-N
MOLT-4 = tested on: MOLT-4
Malme-3M = tested on: Malme-3M
NCI-H226 = tested on: NCI-H226
NCI-H23 = tested on: NCI-H23
NCI-H460 = tested on: NCI-H460
NCI-H522 = tested on: NCI-H522
NCI/ADR-RES = tested on: NCI/ADR-RES
OVCAR-3 = tested on: OVCAR-3
OVCAR-4 = tested on: OVCAR-4
OVCAR-5 = tested on: OVCAR-5
OVCAR-8 = tested on: OVCAR-8
PC-3 = tested on: PC-3
RPMI-8226 = tested on: RPMI-8226
RXF 393 = tested on: RXF 393
SF-268 = tested on: SF-268
SF-295 = tested on: SF-295
SF-539 = tested on: SF-539
SK-MEL-28 = tested on: SK-MEL-28
SK-MEL-2 = tested on: SK-MEL-2
SK-MEL-5 = tested on: SK-MEL-5
SK-OV-3 = tested on: SK-OV-3
SN12C = tested on: SN12C
SNB-19 = tested on: SNB-19
SNB-75 = tested on: SNB-75
SR = tested on: SR
SW-620 = tested on: SW-620
T47D = tested on: T47D
TK-10 = tested on: TK-10
U-251 = tested on: U-251
UACC-257 = tested on: UACC-257
UACC-62 = tested on: UACC-62
UO-31 = tested on: UO-31

CSC1(SC2=NCCN2)SC2(NCCN2)S1
GI50 (786-0): 3.86 µM (inactive) | GI50 (A498): 12.6 µM (inactive) | GI50 (A549): 20.3 µM (inactive) | GI50 (ACHN): 19 µM (inactive) | GI50 (BT-549): 21.4 µM (inactive) | GI50 (CAKI-1): 13.6 µM (inactive) | GI50 (CCRF-CEM): 1.21 µM (inactive) | GI50 (COLO 205): 21.3 µM (inactive) | GI50 (DU-145): 14.8 µM (inactive) | GI50 (EKVX): 20.3 µM (inactive) | GI50 (HCC 2998): 15.5 µM (inactive) | GI50 (HCT-116): 17 µM (inactive) | GI50 (HCT-15): 17.7 µM | GI50 (HL-60): 21 µM (inactive) | GI50 (HOP-62): 17.5 µM (inactive) | GI50 (HOP-92): 13.5 µM (inactive) | GI50 (HT-29): 18.7 µM (inactive) | GI50 (Hs-578T): 24.3 µM (inactive) | GI50 (IGROV-1): 18.6 µM (inactive) | GI50 (K562): 12.5 µM (inactive) | GI50 (KM12): 2.3 µM (inactive) | GI50 (LOX IMVI): 10.5 µM (inactive) | GI50 (M14): 21.3 µM (inactive) | GI50 (MCF7): 3.18 µM (inactive) | GI50 (MDA-MB-231): 21.1 µM (inactive) | GI50 (MDA-MB-435): 15.4 µM (inactive) | GI50 (MDA-N): 20.5 µM (inactive) | GI50 (MOLT-4): 10.8 µM (inactive) | GI50 (Malme-3M): 17.6 µM (inactive) | GI50 (NCI-H226): 27.2 µM (inactive) | GI50 (NCI-H23): 16.3 µM (inactive) | GI50 (NCI-H460): 20.5 µM (inactive) | GI50 (NCI-H522): 11.8 µM (inactive) | GI50 (NCI/ADR-RES): 31.8 µM (inactive) | GI50 (OVCAR-3): 15.8 µM (inactive) | GI50 (OVCAR-4): 20.4 µM (inactive) | GI50 (OVCAR-5): 19.5 µM (inactive) | GI50 (OVCAR-8): 19.7 µM (inactive) | GI50 (PC-3): 18.5 µM (inactive) | GI50 (RPMI-8226): 2.77 µM (inactive) | GI50 (RXF 393): 7.53 µM (inactive) | GI50 (SF-268): 18.2 µM (inactive) | GI50 (SF-295): 27.8 µM (inactive) | GI50 (SF-539): 16.7 µM (inactive) | GI50 (SK-MEL-28): 20.2 µM (inactive) | GI50 (SK-MEL-2): 19.2 µM (inactive) | GI50 (SK-MEL-5): 18.9 µM (inactive) | GI50 (SK-OV-3): 21.6 µM (inactive) | GI50 (SN12C): 20.7 µM (inactive) | GI50 (SNB-19): 20.3 µM (inactive) | GI50 (SNB-75): 17.3 µM (inactive) | GI50 (SR): 5.7 µM (inactive) | GI50 (SW-620): 9.04 µM (inactive) | GI50 (T47D): 0.9 µM (active) | GI50 (TK-10): 6.34 µM (inactive) | GI50 (U-251): 17.9 µM (inactive) | GI50 (UACC-257): 20.6 µM (inactive) | GI50 (UACC-62): 16.9 µM (inactive) | GI50 (UO-31): 17.3 µM (inactive)

COc1ccc(/C=C/c2cc(O)cc(OC3OC(CO)C(O)C(O)C3O)c2)cc1O (centres undefined)
GI50 (786-0): > 100 µM (inactive) | GI50 (A498): > 100 µM (inactive) | GI50 (A549): 69.2 µM (inactive) | GI50 (ACHN): 14.8 µM (inactive) | GI50 (BT-549): > 100 µM (inactive) | GI50 (CAKI-1): > 100 µM (inactive) | GI50 (CCRF-CEM): 82.4 µM (inactive) | GI50 (COLO 205): > 100 µM (inactive) | GI50 (DU-145): 37.8 µM (inactive) | GI50 (EKVX): > 100 µM (inactive) | GI50 (HCC 2998): > 100 µM (inactive) | GI50 (HCT-116): 68.7 µM (inactive) | GI50 (HCT-15): 6.01 µM | GI50 (HL-60): > 100 µM (inactive) | GI50 (HOP-62): 37 µM (inactive) | GI50 (HOP-92): > 100 µM (inactive) | GI50 (HT-29): > 100 µM (inactive) | GI50 (Hs-578T): > 100 µM (inactive) | GI50 (IGROV-1): 66.2 µM (inactive) | GI50 (K562): 45.1 µM (inactive) | GI50 (KM12): 18.9 µM (inactive) | GI50 (LOX IMVI): > 100 µM (inactive) | GI50 (M14): > 100 µM (inactive) | GI50 (MCF7): > 100 µM (inactive) | GI50 (MDA-MB-231): > 100 µM (inactive) | GI50 (MDA-MB-435): 82.4 µM (inactive) | GI50 (MDA-N): > 100 µM (inactive) | GI50 (MOLT-4): > 100 µM (inactive) | GI50 (Malme-3M): 67.1 µM (inactive) | GI50 (NCI-H226): > 100 µM (inactive) | GI50 (NCI-H460): > 100 µM (inactive) | GI50 (NCI-H522): 44 µM (inactive) | GI50 (NCI/ADR-RES): 94 µM (inactive) | GI50 (OVCAR-3): > 100 µM (inactive) | GI50 (OVCAR-4): > 100 µM (inactive) | GI50 (OVCAR-5): 67.1 µM (inactive) | GI50 (OVCAR-8): > 100 µM (inactive) | GI50 (PC-3): 49.2 µM (inactive) | GI50 (RPMI-8226): 78.7 µM (inactive) | GI50 (RXF 393): > 100 µM (inactive) | GI50 (SF-268): 42.6 µM (inactive) | GI50 (SF-295): 51.8 µM (inactive) | GI50 (SF-539): 57.1 µM (inactive) | GI50 (SK-MEL-28): > 100 µM (inactive) | GI50 (SK-MEL-2): > 100 µM (inactive) | GI50 (SK-MEL-5): > 100 µM (inactive) | GI50 (SK-OV-3): > 100 µM (inactive) | GI50 (SN12C): > 100 µM (inactive) | GI50 (SNB-19): > 100 µM (inactive) | GI50 (SNB-75): > 100 µM (inactive) | GI50 (SR): > 100 µM (inactive) | GI50 (SW-620): > 100 µM (inactive) | GI50 (T47D): > 100 µM (inactive) | GI50 (TK-10): > 100 µM (inactive) | GI50 (U-251): > 100 µM (inactive) | GI50 (UACC-257): > 100 µM (inactive) | GI50 (UACC-62): 19.4 µM (inactive) | GI50 (UO-31): 19.2 µM (inactive)

Cn1c(=O)c2nc3c(=O)n(C)c(=O)n(CC(N)=O)c3nc2n(C)c1=O
GI50 (786-0): > 100 µM (inactive) | GI50 (A498): > 100 µM (inactive) | GI50 (ACHN): > 100 µM (inactive) | GI50 (BT-549): > 100 µM (inactive) | GI50 (CAKI-1): > 100 µM (inactive) | GI50 (CCRF-CEM): > 100 µM (inactive) | GI50 (COLO 205): > 100 µM (inactive) | GI50 (DU-145): > 100 µM (inactive) | GI50 (EKVX): > 100 µM (inactive) | GI50 (HCC 2998): > 100 µM (inactive) | GI50 (HCT-116): > 100 µM (inactive) | GI50 (HCT-15): > 100 µM | GI50 (HL-60): > 100 µM (inactive) | GI50 (HOP-62): > 100 µM (inactive) | GI50 (HOP-92): > 100 µM (inactive) | GI50 (HT-29): > 100 µM (inactive) | GI50 (Hs-578T): > 100 µM (inactive) | GI50 (IGROV-1): > 100 µM (inactive) | GI50 (K562): > 100 µM (inactive) | GI50 (KM12): > 100 µM (inactive) | GI50 (LOX IMVI): > 100 µM (inactive) | GI50 (M14): > 100 µM (inactive) | GI50 (MCF7): > 100 µM (inactive) | GI50 (MDA-MB-231): > 100 µM (inactive) | GI50 (MDA-MB-435): > 100 µM (inactive) | GI50 (MDA-N): > 100 µM (inactive) | GI50 (Malme-3M): > 100 µM (inactive) | GI50 (NCI-H226): > 100 µM (inactive) | GI50 (NCI-H23): > 100 µM (inactive) | GI50 (NCI-H460): > 100 µM (inactive) | GI50 (NCI-H522): > 100 µM (inactive) | GI50 (NCI/ADR-RES): > 100 µM (inactive) | GI50 (OVCAR-3): > 100 µM (inactive) | GI50 (OVCAR-4): > 100 µM (inactive) | GI50 (OVCAR-5): > 100 µM (inactive) | GI50 (OVCAR-8): > 100 µM (inactive) | GI50 (PC-3): > 100 µM (inactive) | GI50 (RPMI-8226): > 100 µM (inactive) | GI50 (RXF 393): > 100 µM (inactive) | GI50 (SF-268): > 100 µM (inactive) | GI50 (SF-295): > 100 µM (inactive) | GI50 (SF-539): > 100 µM (inactive) | GI50 (SK-MEL-28): > 100 µM (inactive) | GI50 (SK-MEL-2): > 100 µM (inactive) | GI50 (SK-MEL-5): > 100 µM (inactive) | GI50 (SK-OV-3): > 100 µM (inactive) | GI50 (SN12C): > 100 µM (inactive) | GI50 (SNB-19): > 100 µM (inactive) | GI50 (SNB-75): > 100 µM (inactive) | GI50 (SR): > 100 µM (inactive) | GI50 (SW-620): > 100 µM (inactive) | GI50 (T47D): > 100 µM (inactive) | GI50 (TK-10): > 100 µM (inactive) | GI50 (U-251): > 100 µM (inactive) | GI50 (UACC-257): > 100 µM (inactive) | GI50 (UACC-62): > 100 µM (inactive) | GI50 (UO-31): > 100 µM (inactive)
